According to PubChem BioAssay (NCI):
Values joined by “and” are separate entries in the source; they are usually repeats but may differ in a detail not shown here. Equal entries are not always repeated.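 Each compound was tested at five concentrations against cells in 96-well plates for 48 hours. GI50: concentration for 50% inhibition of growth. Definition used: TGI = concentration required for complete inhibition of growth.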

Assays:
Assay in all cases: NCI anticancer screen, dose series, 48 h
COLO 205 colon = tested on: COLO 205 colon
MDA-N = tested on: MDA-N
LOX IMVI melanoma = tested on: LOX IMVI melanoma
MDA-MB-435 = tested on: MDA-MB-435
IGROV1 ovarian = tested on: IGROV1 ovarian
HT29 colon = tested on: HT29 colon
OVCAR-8 ovarian = tested on: OVCAR-8 ovarian
HOP-62 NSCLC = tested on: HOP-62 NSCLC
NCI-H226 lung = tested on: NCI-H226 lung
A498 renal = tested on: A498 renal

Row | SMILES | TGI (COLO 205 colon) | TGI (MDA-N) | TGI (LOX IMVI melanoma) | TGI (MDA-MB-435) | TGI (IGROV1 ovarian) | TGI (HT29 colon) | TGI (OVCAR-8 ovarian) | TGI (HOP-62 NSCLC) | TGI (NCI-H226 lung) | TGI (A498 renal) | GI50 (COLO 205 colon) | GI50 (MDA-N) | GI50 (MDA-MB-435) | GI50 (IGROV1 ovarian) | GI50 (HT29 colon) | GI50 (LOX IMVI melanoma) | GI50 (OVCAR-8 ovarian) | GI50 (HOP-62 NSCLC) | GI50 (NCI-H226 lung)
1 | CN(C)C=Nc1cccc2c1NSN2 | > 100 µM | > 100 µM | > 100 µM | > 100 µM | > 100 µM | > 100 µM | > 100 µM | > 100 µM | > 100 µM | > 100 µM |  |  |  |  |  |  |  |  | 
2 | Cc1ccc(S(=O)(=O)N/N=C2/C3CC4CCC2C4C3)cc1 (centres undefined) | > 100 µM | > 100 µM | > 100 µM | > 100 µM | > 100 µM | > 100 µM | > 100 µM | > 100 µM | > 100 µM | > 100 µM |  |  |  |  |  |  |  |  | 
3 | COC(=O)/C=C/[C@H]1[C@H](C)N1S(=O)(=O)c1ccc(C)cc1 (some centres undefined) | > 100 µM | > 100 µM | > 100 µM | > 100 µM | > 100 µM | > 100 µM | > 100 µM | > 100 µM | > 100 µM | > 100 µM |  |  |  |  |  |  |  |  | 
4 | COc1ccc([C@H]2C=C(c3cc(F)c(Cl)cc3Cl)N=c3s/c(=C\c4ccc(-c5ccc(Cl)cc5Cl)o4)c(=O)n32)cc1 | > 100 µM | > 100 µM | > 100 µM | > 100 µM | > 100 µM | > 100 µM | > 100 µM | 45.3 µM | > 100 µM | 6.58 µM |  |  |  |  |  |  |  |  | 
5 | O=C1CN2CCN(CC2)CC(=O)Nc2ccc(cc2)S(=O)(=O)c2ccc(cc2)NC(=O)CN2CCN(CC2)CC(=O)Nc2ccc(cc2)S(=O)(=O)c2ccc(cc2)N1 | > 100 µM | > 100 µM | > 100 µM | > 89.7 µM | > 100 µM | 51 µM | > 100 µM | > 93.6 µM | > 100 µM | > 100 µM |  |  |  |  |  |  |  |  | 
6 | CC(C)(C)OC(=O)/C=C/[C@@H](CCC(=O)/C=C/[C@H](/C=C\CCCC(=O)O)NC1(c2ccccc2)c2ccccc2-c2ccccc21)O[Si](C)(C)C(C)(C)C | 59 µM | 47.2 µM | 27.6 µM | 48.7 µM | 35.5 µM | 30.1 µM | 55 µM | 36.5 µM | 40.3 µM | 34 µM |  |  |  |  |  |  |  |  | 
7 | COc1ccc(-c2c(C#N)c(N)n(C3OC(COC(C)=O)C(OC(C)=O)C(OC(C)=O)C3OC(C)=O)c(=S)c2C#N)cc1 (centres undefined) | > 100 µM and 43.2 µM | > 100 µM and 28.2 µM | > 100 µM | > 100 µM and 26.2 µM | > 100 µM | > 100 µM | > 100 µM and 75.4 µM | 89.1 µM and 51.6 µM | > 100 µM | 91.4 µM and 63.5 µM | > 100 µM and 21.2 µM | 58.3 µM and 15 µM | 44.1 µM and 13.4 µM | > 100 µM and 31.6 µM | 84.7 µM and 36.2 µM |  |  |  | 
8 | Cc1nc2ccccc2n1Cc1ccc(NC(=S)NC2CCCCC2)cc1 | > 100 µM | > 100 µM | > 100 µM | > 100 µM | > 100 µM | > 100 µM | > 100 µM | > 100 µM | > 100 µM | > 100 µM |  |  |  |  |  |  |  |  | 
9 | O=C(Nc1ccccn1)c1cc2c(cc1Cl)Sc1nccn1S2(=O)=O | 83.5 µM | > 100 µM | > 100 µM | > 100 µM | 76.4 µM | > 100 µM | > 100 µM | > 100 µM | 57.3 µM | > 100 µM |  |  |  |  |  |  |  |  | 
10 | CCOC1=NC(C(F)(F)F)(C(F)(F)F)N=C(/N=C(/N)N(C)C(C(C)C)P(=O)(OC(C)C)OC(C)C)O1 (centres undefined) | > 100 µM | > 100 µM | > 100 µM | > 100 µM | > 100 µM | > 100 µM | > 100 µM | > 100 µM | > 100 µM | > 100 µM |  |  |  |  |  |  |  |  | 
11 | Cc1c(OCc2cccc3ccccc23)ccc2c(=O)cc(S)oc12 | > 100 µM | > 100 µM | 47.5 µM | 98.6 µM | > 100 µM | > 100 µM | > 100 µM | > 100 µM | > 100 µM | > 100 µM |  |  |  |  |  |  |  |  | 
12 | CC(=O)Nc1ccc2cc3c(nc2n1)c1cccnc1n3S(=O)(=O)c1ccccc1 | > 100 µM | > 100 µM | > 100 µM | > 100 µM | > 100 µM | > 100 µM | > 100 µM | > 100 µM | > 100 µM | > 100 µM |  |  |  |  |  |  |  |  | 
13 | COC(=O)/C=C/c1cc(OC)c2c(c1)C(C(=O)OC)C(c1ccc(O)c(OC)c1)O2 (centres undefined) | 35.4 µM and 26.4 µM and 25.8 µM | 29.1 µM | > 100 µM and 22.3 µM and 25.3 µM | 4.49 µM and 1.32 µM | > 100 µM and 35.2 µM | 37.8 µM and 26.8 µM and 14.4 µM | > 100 µM and > 72.2 µM and 21.6 µM | > 100 µM | > 100 µM and > 88.2 µM and 12.7 µM | > 65.4 µM and > 100 µM and 77.3 µM | 17 µM and 13.1 µM and 7.32 µM | 0.204 µM | 1.13 µM and 0.259 µM | 4.9 µM and 2.61 µM and 2.09 µM | 16 µM and 9.17 µM and 3.77 µM | 7.16 µM and 4.36 µM and 1.04 µM | 10.8 µM and 4.76 µM and 2.32 µM | 12 µM and 5.12 µM and 7.2 µM | 32.9 µM and 10.3 µM and 4.53 µM
14 | Nc1nc(=O)n(C2CC(O)C(CO)O2)c2nc(-c3ccc(-c4ccccc4)cc3)cnc12 (centres undefined) | > 100 µM | > 100 µM | > 100 µM | > 100 µM | > 100 µM | > 100 µM | > 100 µM | 82.9 µM | 64.9 µM | > 100 µM |  |  |  |  |  |  |  |  | 
